Assays:
cholesterol biosynthesis = test: Test C: Inhibition of cholesterol biosynthesis in vivo; parameters: species or system Male Sprague-Dawley rats; settings: oral administration of 0.2 mg/kg; relative to the measured value of the control group; serum nonsaponifiable lipids
Experimental: Male Sprague-Dawley rats weighing about 150 g were fed normal Purina chow diet and water ad libitum, and exposed to 12 hours light/12 hours dark lighting pattern (2:00 PM - 2:00 AM dark) prior to use for in vivo inhibition test of cholesterol biosynthesis. Animals were separated groups consisting of five rats as to be average mean body weight in each groups. Test compounds at dosage of 0.02-0.2 mg/kg body weight (0.4 ml/100 g body weight), were dissolved in water or suspended in 0.5% methyl cellulose and orally administered at 2-3 hours before mid-dark (8:00 PM), while cholesterol biosynthesis reaches to maximum in rats. As control, rats were orally administered only water or vehicle. At 90 minutes after sample administration, rats were injected intraperitoneally with 10 »Ci of [2-¹⁴C]sodium acetate at volume of 0.2 ml per one. 2 Hours later, blood samples were obtained and serum were separated immediately. Total lipids were extracted according to the method of Folch et al. and saponified with EtOH-KOH. Nonsaponifiable lipids were extracted with petroleum ether and radio activity incorporated into nonsaponifiable lipids was counted.
Inhibitory activity was indicated as percent decrease of counts in testing groups (DPM/2 ml serum/2 hours) from that in control group.

Test D: Acute toxicity = settings: mouse, in vivo, po, 1000 mg/kg; orally administered 1,000 mg/kg, 0.5% CMC suspension; mortality after seven days; group of three mice
Experimental: A 0.5% CMC suspension of a test compound was orally administered to ICR male mice (group of three mice). The acute toxicity was determined based on the mortality after seven days. With compound I-5-1, I-5-2, I-5-4, I-5-7, I-5-10, I-5-11, I-5-12, I-5-14 and I-5-15 of the present invention, the mortality was 0% even when they were orally administered in an amount of 1,000 mg/kg, respectively.

Hep G2 cells = target: T1, Hep G2 cells (Homo sapiens, UniProt P04035); test: Test B-1: Inhibition of cholesterol biosynthesis in culture cells ([2-14C]sodium acetate added at 0 hr after addition of compounds); assay type: cell-based; settings: HepG2, concentration of 1.0 x 10⁻⁷ mol/ℓ, read-out: Inhibitory activities %
T1 sequence (P04035 1-888): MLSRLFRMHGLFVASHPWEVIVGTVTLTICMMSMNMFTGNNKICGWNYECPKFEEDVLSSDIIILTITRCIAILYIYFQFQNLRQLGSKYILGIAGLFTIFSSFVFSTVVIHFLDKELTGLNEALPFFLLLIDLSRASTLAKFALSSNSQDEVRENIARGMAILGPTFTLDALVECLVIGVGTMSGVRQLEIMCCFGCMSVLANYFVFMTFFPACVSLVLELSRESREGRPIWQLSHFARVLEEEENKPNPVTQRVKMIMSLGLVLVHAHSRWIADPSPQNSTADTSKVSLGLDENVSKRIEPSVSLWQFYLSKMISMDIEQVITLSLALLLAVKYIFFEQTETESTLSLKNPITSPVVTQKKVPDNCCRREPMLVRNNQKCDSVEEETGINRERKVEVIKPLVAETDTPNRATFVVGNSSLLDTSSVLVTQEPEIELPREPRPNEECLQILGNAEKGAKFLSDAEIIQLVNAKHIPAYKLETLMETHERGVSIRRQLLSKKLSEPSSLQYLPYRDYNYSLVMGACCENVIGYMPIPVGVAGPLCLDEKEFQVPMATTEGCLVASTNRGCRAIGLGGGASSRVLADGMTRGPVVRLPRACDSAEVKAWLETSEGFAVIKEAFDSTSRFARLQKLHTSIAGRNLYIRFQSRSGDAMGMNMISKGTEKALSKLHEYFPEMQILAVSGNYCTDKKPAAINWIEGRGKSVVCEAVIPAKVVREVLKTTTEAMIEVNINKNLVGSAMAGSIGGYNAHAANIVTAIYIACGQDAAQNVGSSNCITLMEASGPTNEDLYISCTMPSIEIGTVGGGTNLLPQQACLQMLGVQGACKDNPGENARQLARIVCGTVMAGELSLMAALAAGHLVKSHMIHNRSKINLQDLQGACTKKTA
Experimental: Hep G2 cells at over 5th passage were seeded to 12 well plates and incubated with Dulbecco's modified Eagle (DME) medium containing 10% of fetal bovine serum (FBS) at 37°C, 5% CO₂ until cells were confluent for about 7 days. Cells were exposed to the DME medium contaiing 5% of lipoprotein deficient serum (LpDS) prepared by ultracentrifugation method for over 24 hours. Medium was changed to 0.5 ml of fresh 5% LpDS containing DME before assay and 10 »l of test compound solution dissolved in water or DMSO were added. 0.2 »Ci of [2-¹⁴C]sodium acetate (20 »l) was added at 0 hr(B-1) or 4 hrs(B-2) after addition of compounds. After 4 hrs further incubation with [2-¹⁴C]sodium acetate, medium was removed and cells were washed with phosphate buffered saline (PBS) chilled at 4°C. Cells were scraped with rubber policeman and collected to tubes with PBS and digested with 0.2 ml of 0.5 N KOH at 37°C. Aliquot of digestion was used for protein analysis and remaining was saponified with 1 ml of 15% EtOH-KOH at 75°C for 1 hour. Nonsaponifiable lipids were extracted with petroleum ether and ¹⁴C radioactivity was counted. Counts were revised by cell protein and indicated with DPM/mg protein. Inhibitory activity of compounds was indicated with IC50.

inhibition at 0.1 µM (Hep G2 cells)	SMILES	percent decrease of counts (cholesterol biosynthesis)	mortality at 168 h (Test D: Acute toxicity)
–	CCC(C)C(=O)OC1CC(O)C=C2C=CC(C)C(CCC(O)CC(O)CC(=O)O)C21 (stereo not shown) [CS-514, reference compound]	39%	–
–	Cc1nn(C)c2nc(C(C)C)c(/C=C/C(O)CC(O)CC(=O)O)c(-c3ccc(F)cc3)c12 (stereo not shown) [Compound I-5-1, Sodium (E)-7-[4′-(4˝-fluorophenyl)-1′,3′-dimethyl-6′-(1˝-methylethyl)pyrazolo[3,4-b]pyridin-5#MIN#-yl]-3,5-dihydroxyhept-6-enoate]	–	0%
–	Cc1nn(-c2ccccc2)c2nc(C(C)C)c(/C=C/C(O)CC(O)CC(=O)O)c(-c3ccc(F)cc3)c12 (stereo not shown) [Compound I-5-2]	–	0%
36.3%	Cc1c2c(-c3ccc(F)cc3)c(/C=C/C(O)CC(O)CC(=O)O)c(C(C)C)nc2nn1-c1ccccc1 (stereo not shown) [Compound I-5-3]	–	–
–	CC(C)c1nc2c(c(-c3ccccc3)nn2C)c(-c2ccc(F)cc2)c1/C=C/C(O)CC(O)CC(=O)O (stereo not shown) [Compound I-5-4]	53%	0%
78.2%	Cc1nn(C)c2nc(C3CC3)c(/C=C/C(O)CC(O)CC(=O)O)c(-c3ccc(F)cc3)c12 (stereo not shown) [Compound I-5-5]	49%	–
53.3%	CC(C)c1nc2c(cnn2-c2ccccc2)c(-c2ccc(F)cc2)c1/C=C/C(O)CC(O)CC(=O)O (stereo not shown) [Compound I-5-6]	–	–
–	Cc1nn(C(C)(C)C)c2nc(C(C)C)c(/C=C/C(O)CC(O)CC(=O)O)c(-c3ccc(F)cc3)c12 (stereo not shown) [Compound I-5-7]	52%	0%
55.3%	CC(C)c1nc2c(c(C3CC3)nn2C)c(-c2ccc(F)cc2)c1/C=C/C(O)CC(O)CC(=O)O (stereo not shown) [Compound I-5-9]	–	–
–	Cc1nn(Cc2ccccc2)c2nc(C(C)C)c(/C=C/C(O)CC(O)CC(=O)O)c(-c3ccc(F)cc3)c12 (stereo not shown) [Compound I-5-10]	–	0%
55.5%	COc1ccc(-n2nc(C)c3c(-c4ccc(F)cc4)c(/C=C/C(O)CC(O)CC(=O)O)c(C(C)C)nc32)cc1 (stereo not shown) [Compound I-5-13]	–	–
–	Cn1nc(-c2ccccc2)c2c(-c3ccc(F)cc3)c(/C=C/C(O)CC(O)CC(=O)O)c(C3CC3)nc21 (stereo not shown) [Compound I-5-14]	–	0%
–	Cc1nn(C(C)(C)C)c2nc(C3CC3)c(/C=C/C(O)CC(O)CC(=O)O)c(-c3ccc(F)cc3)c12 (stereo not shown) [Compound I-5-15]	–	0%
49%	CC(C)(C)n1nc(C2CC2)c2c(-c3ccc(F)cc3)c(/C=C/C(O)CC(O)CC(=O)O)c(C3CC3)nc21 (stereo not shown) [Compound I-5-16]	–	–
36%	CC(C)(C)n1nc(-c2ccccc2)c2c(-c3ccc(F)cc3)c(/C=C/C(O)CC(O)CC(=O)O)c(C3CC3)nc21 (stereo not shown) [Compound I-5-17]	–	–

SMILES	inhibition at 0.1 µM (Hep G2 cells)	percent decrease of counts (cholesterol biosynthesis)	mortality at 168 h (Test D: Acute toxicity)
CC(C)c1nc2c(c(-c3ccc(Cl)cc3)nn2C)c(-c2ccc(F)cc2)c1/C=C/C(O)CC(O)CC(=O)O (stereo not shown) [Compound I-5-11]	58.8%	–	0%
CC(C)c1nc2c(c(C3CC3)nn2-c2ccccc2)c(-c2ccc(F)cc2)c1/C=C/C(O)CC(O)CC(=O)O (stereo not shown) [Compound I-5-12]	47.3%	–	0%
